Data as given in patent EP0503388A1, “Pregna-21-oic acid esters” (TEIKOKU SEIYAKU KABUSHIKI KAISHA, priority 1991, dated 1992).

Tested on: back of volunteers (10 healthy adult males)
Assay: Vasoconstrictive activity: skin paleness after application of 0.1 % ointment in fin chamber
Assay type: in vivo
Settings: for vasoconstrictive activity (skin paleness), overall result in words: 0.1 % by weight in white petrolatum base, compared with reference ointments of prednisolone and dexamethasone; for % of the number of subject which showed (+) Paleness was clearly observed / % of the number of subject which showed (±) Paleness was slightly obseved: 0.1 % by weight, about 20 mg of sample, 10 subjects
Procedure: The compounds of the present invention were tested for the vasoconstrictive activity in the following manner.
Each of the compounds (1) to (10) of the present invention was mixed in a white petrolatum base (white petrolatum : liquid paraffin = 9 : 1) at a concentration of 0.1 % by weight for use as a test sample. Commercially available steroidal medicaments (ointments of prednisolone and dexamethasone) were used at a concentration of 0.1 % by weight of the steroid as a reference sample. A commercially available ointment base was used as a control.
To one portion of the back of volunteers (10 healthy adult males) was applied each sample. About 20 mg of each sample was put in an aluminum part of fin chamber, which was applied. Two hours and four hours after the application, samples were simultanously removed. […] The result was evaluated based on the following criteria (-) Paleness was not observed. (±) Paleness was slightly obseved. (+) Paleness was clearly observed.

[1] = application time 2 hr, 2 hours after removal
[2] = application time 2 hr, 4 hours after removal
[3] = application time 4 hr, 2 hours after removal
[4] = application time 4 hr, 4 hours after removal

Row | Compound | vasoconstrictive activity (skin paleness), overall result in words | % of the number of subject which showed (+) Paleness was clearly observed [1] | % of the number of subject which showed (±) Paleness was slightly obseved [1] | % of the number of subject which showed (+) Paleness was clearly observed [2] | % of the number of subject which showed (±) Paleness was slightly obseved [2] | % of the number of subject which showed (+) Paleness was clearly observed [3] | % of the number of subject which showed (±) Paleness was slightly obseved [3] | % of the number of subject which showed (+) Paleness was clearly observed [4] | % of the number of subject which showed (±) Paleness was slightly obseved [4]
1 | COC(=O)[C@@H](O)[C@@]1(O)[C@H](C)C[C@H]2[C@@H]3CCC4=CC(=O)C=C[C@]4(C)[C@@]3(F)[C@@H](O)C[C@@]21C [(5), methyl (20S)-9α-fluoro-16α-methyl-11β,17,20-trihydroxy-3-oxo-1,4-pregnadien-21-oate] | did not show significant difference from reference |  |  |  |  |  |  |  | 
2 | COC(=O)[C@H](O)[C@@]1(O)[C@H](C)C[C@H]2[C@@H]3CCC4=CC(=O)C=C[C@]4(C)[C@@]3(F)[C@@H](O)C[C@@]21C [(6), methyl (20R)-9α-fluoro-16α-methyl-11β,17,20-trihydroxy-3-oxo-1,4-pregnadien-21-oate] | did not show significant difference from reference |  |  |  |  |  |  |  | 
3 | COC(=O)[C@H](OC(=O)C(C)(C)C)[C@@]1(O)CC[C@H]2[C@@H]3CCC4=CC(=O)C=C[C@]4(C)[C@H]3[C@@H](O)C[C@@]21C [Compound (4)] |  | 0% | 10% | 0% | 70% | 20% | 70% | 40% | 100%
4 | COC(=O)[C@@H](OC(C)=O)[C@@]1(O)[C@H](C)C[C@H]2[C@@H]3CCC4=CC(=O)C=C[C@]4(C)[C@@]3(F)[C@@H](O)C[C@@]21C [Compound (7), methyl (20S/R)-acetoxy-11β,17-dihydroxy-9α-fluoro-16α-methyl-3-oxo-1,4-pregnadien-21-oate] | excellent pharmacological activity | 0% | 10% | 0% | 50% | 30% | 70% | 50% | 80%
5 | COC(=O)[C@H](OC(C)=O)[C@@]1(O)[C@H](C)C[C@H]2[C@@H]3CCC4=CC(=O)C=C[C@]4(C)[C@@]3(F)[C@@H](O)C[C@@]21C [Compound (8), methyl (20S/R)-acetoxy-11β,17-dihydroxy-9α-fluoro-16α-methyl-3-oxo-1,4-pregnadien-21-oate] | did not show significant difference from reference |  |  |  |  |  |  |  | 
6 | COC(=O)[C@@H](OC(=O)C(C)(C)C)[C@@]1(O)[C@H](C)C[C@H]2[C@@H]3CCC4=CC(=O)C=C[C@]4(C)[C@@]3(F)[C@@H](O)C[C@@]21C [Compound (9), methyl (20S)-11β,17-dihydroxy-9α-fluoro-16α-methyl-3-oxo-20-pivaloyloxy-1,4-pregnadien-21-oate] | excellent pharmacological activity | 0% | 0% | 0% | 0% | 0% | 50% | 10% | 90%
7 | COC(=O)[C@H](OC(=O)C(C)(C)C)[C@@]1(O)[C@H](C)C[C@H]2[C@@H]3CCC4=CC(=O)C=C[C@]4(C)[C@@]3(F)[C@@H](O)C[C@@]21C [Compound (10), methyl (20R)-11β,17-dihydroxy-9α-fluoro-16α-methyl-3-oxo-20-pivaloyloxy-1,4-pregnadien-21-oate] |  | 0% | 0% | 0% | 10% | 0% | 0% | 0% | 10%
8 | C[C@@H]1C[C@H]2[C@@H]3CCC4=CC(=O)C=C[C@]4(C)[C@@]3(F)[C@@H](O)C[C@]2(C)[C@@]1(O)C(=O)CO [Dexamethasone, dexamethasone, reference compound] |  | 0% | 0% | 0% | 10% | 0% | 10% | 0% | 20%
9 | C[C@]12C=CC(=O)C=C1CC[C@@H]1[C@@H]2[C@@H](O)C[C@@]2(C)[C@H]1CC[C@]2(O)C(=O)CO [Prednisolone, prednisolone, reference compound] |  | 0% | 0% | 0% | 0% | 0% | 0% | 0% | 0%
